In patent US8518924B2, “Agent for inhibiting visceral fat accumulation” (Morinaga Milk Industry Co., Ltd., priority 2005, dated 2013):

System: ZDF (Zucker Diabetic Fatty) rats
Test: Inhibitory effect on visceral fat accumulation (mesenteric fat weight) in high-fat-diet-fed ZDF rats
Assay type: in vivo, rat
Conditions: for Effect of inhibiting visceral fat accumulation (in words): Tukey-Kramer's test vs negative sample; for Mesenteric fat weight as percentage of that of the group administered with the negative sample: oral once a day for 44 days, 45th day; for Mesenteric fat weight: male ZDF rats on high fat diet, oral 1 ml per 400 g body weight once a day for 44 days, measured at 45th day
Protocol: In Example 1, an inhibitory effect of a compound having a lophenol skeleton on visceral fat accumulation was investigated by using ZDF (Zucker Diabetic Fatty) rats that are model animals for obese diabetes.
Compound 3 (4-methylcholest-7-en-3-ol), Compound 4 (4-methylergost-7-en-3-ol), and Compound 5 (4-methylstigmast-7-en-3-ol) which were produced in Preparation Example 1 were used as Test Samples 1, 2, and 3, respectively. Each of the test samples was dissolved in DMSO, and a concentration of each of the compounds in each of the test samples was adjusted with distilled water to be 10 μg/ml, thereby preparing Test Samples 1-1, 2-1, and 3-1. Test Samples 1-2, 2-2, and 3-2 each having the concentration of a compound of 1 μg/ml were prepared.
At 45th day from initiation of the administration, mesenteric fat weights were measured as the visceral fat.

CC(C)CCCC(C)C1CCC2C3=CCC4C(C)C(O)CCC4(C)C3CCC21C (stereo not drawn) [Compound 3, 4-methylcholest-7-en-3-ol]
Effect of inhibiting visceral fat accumulation (in words) (1 μg/ml): tendency to reduce the visceral fat, but no significant effect was observed
Mesenteric fat weight as percentage of that of the group administered with the negative sample (10 μg/ml solution): 65.0%
Effect of inhibiting visceral fat accumulation (in words) (10 μg/ml): significant effects of inhibiting visceral fat accumulation
Mesenteric fat weight (1 μg/ml solution): 5.63 ± 1.25 g
Mesenteric fat weight (10 μg/ml solution, listed as Test Sample 1-1): 4.48 ± 1.34 g

CC(C)C(C)CCC(C)C1CCC2C3=CCC4C(C)C(O)CCC4(C)C3CCC21C (stereo not drawn) [Compound 4, 4-methylergost-7-en-3-ol]
Effect of inhibiting visceral fat accumulation (in words) (1 μg/ml): tendency to reduce the visceral fat, but no significant effect was observed
Mesenteric fat weight as percentage of that of the group administered with the negative sample (10 μg/ml solution): 54.9%
Effect of inhibiting visceral fat accumulation (in words) (10 μg/ml): significant effects of inhibiting visceral fat accumulation
Mesenteric fat weight (1 μg/ml solution): 5.74 ± 1.57 g
Mesenteric fat weight (10 μg/ml solution, listed as Test Sample 2-1): 3.78 ± 0.26 g

CCC(CCC(C)C1CCC2C3=CCC4C(C)C(O)CCC4(C)C3CCC21C)C(C)C (stereo not drawn) [Compound 5, 4-methylstigmast-7-en-3-ol]
Effect of inhibiting visceral fat accumulation (in words) (1 μg/ml): tendency to reduce the visceral fat, but no significant effect was observed
Mesenteric fat weight as percentage of that of the group administered with the negative sample (10 μg/ml solution): 48.7%
Effect of inhibiting visceral fat accumulation (in words) (10 μg/ml): significant effects of inhibiting visceral fat accumulation
Mesenteric fat weight (1 μg/ml solution): 6.10 ± 1.67 g
Mesenteric fat weight (10 μg/ml solution, listed as Test Sample 3-1): 3.36 ± 1.67 g
